From patent US6528535B2, “Bicyclic inhibitors of protein farnesyl transferase” (Warner-Lambert Company, priority 1997, dated 2003) come the findings set out here.

Structures can show the parent of a compound that is named as a salt. Where two headings read alike, the source gives them in different places.

One may read the IC50 as the concentration that inhibits the measured activity by half. Usually melting point stands for the temperature of the solid-liquid transition.

In data set [1] the target is T1, SF9 affinity purified rat FPT (Rattus norvegicus, UniProt Q02293+Q04631).
T1 construct: made in house; host or cells: Sf9 insect cells
Description: PFT (farnesyl protein transferase) inhibitory activity, radiolabeled farnesyl pyrophosphate / biotinyl peptide bead assay. The settings on record: read-out: FTase, IC50. Format: biochemical. Here is the method:
The protein:farnesyl transferase (PFT) or farnesyl protein transferase (FPT) inhibitory activity of compounds of the present invention were assayed in HEPES buffer (pH 7.4) containing 5 mM potassium phosphate and 20 μM ZnCl2. The solution also contained 5 mM DTT (dithiothreitol), 5 mM MgCl2, and 0.1% PEG 8000. Assays were performed in 96 well plates (Wallec) and employed solutions composed of varying concentrations of a compound of the present invention in 10% DMSO (dimethylsulfoxide). Upon addition of both substrates, radiolabeled farnesyl pyrophosphate ([1^3H], specific activity 15-30 Ci/mmol, final concentration 134 nM) and (biotinyl)-Ahe-Thr-Lys-Cys-Val-Ile-Met ([3aS[3a alpha, 4 beta, 6a alpha]-hexahydro-2-oxo-1H-thieno[3,4-d]imidazole-5-pentanoic acid]-[7-aminoheptanoic acid]-Thr-Lys-Cys-Val-Ile-Met) (Ahe is 7-aminoheptanoic acid, Thr is threonine, Lys is lysine, Cys is cysteine, Val is valine, Ile is isoleucine, and Met is methionine) (final concentration 0.2 μM), the enzyme reaction was started by addition of SF9 affinity purified rat FPT. After incubation at 30° C. for 30 minutes, the reaction was terminated by diluting the reaction 2.5-fold with a stop buffer containing 1.5 M magnesium acetate, 0.2 M H3PO4, 0.5% BSA (bovine serum albumin), and strepavidin beads (Amersham) at a concentration of 1.3 mg/mL. After allowing the plate to settle for 30 minutes at room temperature, radioactivity was quantitated on a microbeta counter (Model 1450, Wallec). The assay was also carried out without 5 mM potassium phosphate.

The mark [2] stands for this setting: average of two tests unless n is given in parentheses.
Setting [3] is: Examples 56-74, parallel synthesis array: single test, values adjusted to account for the purity of the sample.

For the molecule `CSc1ccc(C=C2CCc3cc(OCCc4c[nH]cn4)ccc3C2=O)s1.Cl` [Example 32, 6-[2-(1H-Imidazole-4-yl)-ethoxy]-2-(5-methylsulfanyl-thiophen-2-ylmethylene)-3,4-dihydro-2H-naphthalen-1-one, monohydrochloride], the melting point lay within 168 to 169 °C. Also, in data set [1] (setting [2]), the IC50 came out at 9.1 µM. Taken in the same sequence, the figures for `CC1(C)CC(=O)c2ccc(OCCn3ccnc3)cc2O1` [Example 83, 7-[2-(1H-Imidazolyl)ethoxy]-2,2-dimethyl-4-chromanone] were 84 to 86 °C and 0.9 µM. For the molecule `CSc1ccc(C=C2CCc3cc(OCCn4ccnc4)ccc3C2=O)cc1` [Example 4], the melting point lay in the range of 161 to 161.5 °C. For the same molecule, the IC50 in data set [1] (setting [2]) stood at 0.078 µM. Consider `O=C1CCOc2cc(OCCn3ccnc3)ccc21` [Example 51, 7-[2-(1H-1-Imidazolyl)ethoxy]-4-chromanone], for which the melting point fell in the range of 128 to 130 °C. Besides, the IC50 in data set [1] (setting [2]) came to 4.4 µM. In the case of `O=C1C(=Cc2ccsc2)CCc2cc(OCCc3c[nH]cn3)ccc21` [Example 28, 6-[2-(1H-Imidazole-4-yl)-ethoxy]-2-thiophen-3-ylmethylene-3,4-dihydro-2H-naphthalen-1-one], the melting point lay within 94 to 96 °C. Besides, in data set [1] (setting [2]), the IC50 came out at 0.17 µM.

In turn, `O=C1C(=Cc2ccoc2)CCc2cc(OCCn3ccnc3)ccc21` [Example 23, 2-Furan-3-ylmethylene-6-(2-imidazole-1-yl-ethoxy)-3,4-dihydro-2H-naphthalen-1-one] showed a melting point of 116 to 117 °C. For the same molecule, in data set [1] (setting [2]), the IC50 turned out to be 1.6 µM. Molecule `Cc1ccsc1C=C1CCc2cc(OCCc3c[nH]cn3)ccc2C1=O` [Example 39, 6-[2-(1H-Imidazole-4-yl)-ethoxy]-2-(3-methyl-thiophen-2-ylmethylene)-3,4-dihydro-2H-naphthalen-1-one] came in with a melting point of 191 to 193 °C. Besides, in data set [1] (setting [2]), the IC50 stood at 3.1 µM. Taken in the same sequence, the figures for `CCN(CC)C(=O)c1ccc(C=C2CCc3cc(OCCc4c[nH]cn4)ccc3C2=O)cc1.Cl` [Example 34, N,N-Diethyl-4-{6-[2-(1H-imidazole-4-yl)-ethoxy]-1-oxo-3,4-dihydro-1H-naphthalen-2-ylidenemethyl}-benzamide, monohydrochloride] were 211 to 213 °C and 12.2 µM.

For `O=C(O)c1ccc(C=C2CCc3cc(OCCn4ccnc4)ccc3C2=O)cc1` [Example 12, 4-[6-(2-Imidazole-1-yl-ethoxy)-1-oxo-3,4-dihydro-1H-naphthalen-2-ylidenemethyl]-benzoic acid], the melting point fell in the range of 267 to 267.5 °C. Also, the IC50 in data set [1] (setting [2]) came to 0.6 µM. Molecule `O=C1/C(=C/c2cccs2)CNc2cc(OCCn3ccnc3)ccc21` [Example 49, 7-[2-(1H-1-Imidazolyl)ethoxy]-3-[(E)-1-(2-thienyl)methylidene]-1,2,3,4-tetrahydro-4-quinolinone] showed a melting point of 211 to 213 °C. With `O=C1C(=Cc2ccsc2)CCc2cc(OCCn3ccnc3)ccc21` [Example 11, 6-(2-Imidazole-1yl-ethoxy)-2-thiophen-3-ylmethylene-3,4-dihydro-2H-naphthalen-1-one], the melting point fell in the range of 61 to 62 °C. The IC50 in data set [1] (setting [2]) is 0.12 µM. In turn, `O=C1C(=Cc2ccco2)CCc2cc(OCCc3c[nH]cn3)ccc21` [Example 41, 2-Furan-2-ylmethylene-6-[2-(1H-imidazole-4-yl)-ethoxy]-3,4-dihydro-2H-naphthalen-1-one] yielded a melting point of 57 to 60 °C. The IC50 in data set [1] (setting [2]) was 0.19 µM. Taken in the same sequence, the figures for `Cc1ccc(C=C2CCc3cc(OCCc4c[nH]cn4)ccc3C2=O)s1` [Example 37, 6-[2-(1H-Imidazole-4-yl)-ethoxy]-2-(5-methyl-thiophen-2-ylmethylene)-3,4-dihydro-2H-naphthalen-1-one] were 69 to 70 °C and 0.49 µM. With `O=C1C(=Cc2ccc(Br)cc2)CCc2cc(OCCc3c[nH]cn3)ccc21` [Example 42, 2-(4-Bromo-benzylidene)-6-[2-(1H-imidazole-4-yl)-ethoxy]-3,4-dihydro-2H-naphthalen-1-one], the melting point was 176 to 178 °C. In addition, the IC50 in data set [1] (setting [2]) came out at 5.9 µM. Consider `O=C1C(=Cc2cc(Br)cs2)CCc2cc(OCCn3ccnc3)ccc21` [Example 17, 2-(4-Bromo-thiophen-2-ylmethylene)-6-(2-imidazole-1-yl-ethoxy)-3,4-dihydro-2H-naphthalen-1-one], for which the melting point is 164 to 166 °C. Moreover, the IC50 in data set [1] (setting [2]) was 0.1 µM. Molecule `O=C1C(=Cc2ccco2)CCc2cc(OCCn3ccnc3)ccc21` [Example 16, 2-Furan-2-ylmethylene-6-(2-imidazole-1-yl-ethoxy)-3,4-dihydro-2H-naphthalen-1-one] had a melting point of 109 to 110 °C. Also, the IC50 in data set [1] (setting [2]) was 0.11 µM. Take `CSc1ccc(CC2CCc3cc(OCCn4ccnc4)ccc3C2=O)cc1` (stereo not drawn) [Example 10, 6-(2-Imidazole-1yl-ethoxy)-2-(4-methylsulfanyl-benzyl)-3,4-dihydro-2H-naphthalen-1-one]: the melting point fell in the range of 114 to 117 °C. In data set [1] (setting [2]), the IC50 stood at 0.37 µM. Molecule `CSc1ccc(C=C2CCc3cc(OCCn4ccnc4)ccc3C2=O)s1` [Example 19, 6-(2-Imidazole-1-yl-ethoxy)-2-(5-methylsulfanyl-thiophen-2-ylmethylene)-3,4-dihydro-2H-naphthalen-1-one] displayed a melting point of 102 to 104 °C. Besides, in data set [1] (setting [2]), the IC50 was determined as 0.7 µM.

Take `O=c1ccoc2cc(OCCn3ccnc3)ccc12` [Example 50, 7-[2-(1H-1-Imidazolyl)ethoxy]-4H-4-chromenone]: the melting point lay within 131 to 133 °C. For the same molecule, the IC50 in data set [1] (setting [2]) worked out at 2.6 µM.

Molecule `ON=C1CCCc2cc(OCCn3ccnc3)ccc21` [Example 53, 6-[2-(1H-1-Imidazolyl)ethoxyl]-1,2,3,4-tetrahydro-1-naphthalenone oxime] showed a melting point of 177 to 179 °C. Besides, in data set [1] (setting [2]), the IC50 was determined as 3 µM.

`O=C1c2ccc(OCCn3ccnc3)cc2CCC1Cc1ccc(Br)cc1` (stereo not drawn) [Example 13, 2-(4-Bromo-benzyl)-6-(2-imidazole-1-yl-ethoxy)-3,4-dihydro-2H-naphthalen-1-one] yielded a melting point of 129 to 130.5 °C. In addition, the IC50 in data set [1] (setting [2]) came to 0.29 µM. Take `O=C(O)CON=C1CCCc2cc(OCCn3ccnc3)ccc21` [Example 54, [6-(2-Imidazol-1-yl-ethoxy)-3,4-dihydro-2H-naphthalen-1-ylideneaminooxy]-acetic acid]: the melting point was 193 to 195 °C. Moreover, the IC50 in data set [1] (setting [2]) was 0.34 µM. Consider `O=c1cc(-c2ccccc2)oc2cc(OCCn3ccnc3)ccc12` [Example 77, 7-[2-(1H-1-Imidazolyl)ethoxy]-2-phenyl-4H-4-chromenone], for which the melting point lay within 155 to 159 °C. Moreover, the IC50 in data set [1] (setting [2]) was found to be 9.3 µM. `Cc1cc2c(cc1OCCn1ccnc1)CC/C(=C\c1cccs1)C2=O` [Example 46, 6-[2-(1H-1-Imidazolyl)ethoxy]-7-methyl-2-[(E)-1-(2-thienyl)methylidene]-1,2,3,4-tetrahydro-1-naphthalenone] came in with a melting point of 150 to 151 °C. For the same molecule, the IC50 in data set [1] (setting [2]) stood at 15.4 µM. Regarding `O=C1C(=Cc2ccc(Br)cc2)CCc2cc(OCCn3ccnc3)ccc21` [Example 5, 2-(4-Bromo-benzylidene)-6-(2-imidazole-1-yl-ethoxy)-3,4-dihydro-2H-naphthalen-1-one], the melting point fell in the range of 152 to 153 °C. Also, the IC50 in data set [1] (setting [2]) is 1.37 µM. Consider `CC(=C1CCc2cc(OCCc3c[nH]cn3)ccc2C1=O)c1ccccc1` (as salt: HCl) [Example 40, 6-[2-(1H-Imidazole-4-yl)-ethoxy]-2-(1-phenyl-ethylidene)-3,4-dihydro-2H-naphthalen-1-one], for which the melting point lay in the range of 170 to 172 °C. On to `Cc1cccc(/C=C2\CCc3cc(OCCn4ccnc4)ccc3C2=O)c1` [Example 74, 6-[2-(1H-1-Imidazolyl)ethoxy]-2-[(E)-1-(3-methylphenyl)methylidene]-1,2,3,4-tetrahydro-1-naphthalenone], for which, in data set [1] (setting [3]), the IC50 came out at 1.89 µM. In the case of `CC(C)(CNC(=O)CON=C1CCCc2cc(OCCn3ccnc3)ccc21)c1ccccc1` [Example 55, 2-[6-(2-Imidazol-1-yl-ethoxy)-3,4-dihydro-2H-naphthalen-1-ylideneaminooxy]-N-(2-methyl-2-phenyl-propyl)-acetamide], in data set [1] (setting [2]), the IC50 turned out to be 0.6 µM. Take `CN(C)c1ccc(/C=C2\CCc3cc(OCCn4ccnc4)ccc3C2=O)cc1` [Example 71]: the IC50 in data set [1] (setting [3]) stood at 0.11 µM. `O=C1/C(=C/c2cccc(Cl)c2)CCc2cc(OCCn3ccnc3)ccc21` [Example 57, 2-[(E)-1-(3-Chlorophenyl)methylidene]-6-[2-(1H-1-imidazolyl)ethoxy]-1,2,3,4-tetrahydro-1-naphthalenone]: in data set [1] (setting [3]), the IC50 amounted to 0.42 µM.
